By IC50 is commonly meant the concentration needed to halve the response being measured.

This is an account of results in US7943629B2, “Sulphimides as protein kinase inhibitors” (Bayer Schering Pharma AG, priority 2006, dated 2011).

For one assay, the target named is T1, KDR (VEGFR2) (Homo sapiens, UniProt P35968).
T1 construct: made in house; host or cells: E. coli
The experiment in a line: KDR kinase assay. Format: biochemical. Conditions: 10 μM ATP, 22° C., 45 min, HTRF. As for the experimental part: Recombinant KDR protein was expressed in E. coli and then purified. The kinase substrate used was the biotinylated peptide having the amino acid sequence biotin-DFGLARDMYDKEYYSVG, which was purchased from Biosynthan. KDR [test volume 5 μl] was incubated in the presence of various concentrations of test substances (0 μM, and 10 measurement points within the range 0.001-20 μM in duplicate) in assay buffer [50 mM HEPES pH 7.0, 25.0 mM MgCl2, […], 0.1 mM Na ortho-vanadate, 1.0 mM dithiothreitol, 0.001% NP40, 10 μM ATP, 0.03 μM substrate peptide […], 1.0% dimethyl sulphoxide] at 22° C. for 45 min. The reaction was stopped by adding 5 μl of an EDTA/detection solution [50 mM HEPES pH 7.5, 125 mM EDTA, 0.2% BSA, 0.1 μM streptavidin-XLent (from CisBio), 2 nM PT66-Eu (from PerkinElmer)]. The fluorescence emission at 620 nm and 665 nm after excitation with light of the wavelength 350 nm was measured in a Rubystar HTRF instrument from BMG Labsystems.
The measured data (ratio of emission 665 divided by emission 620 multiplied by 10 000) were normalized to 0% inhibition (enzyme reaction without inhibitor) and 100% inhibition (all assay components apart from enzyme). The IC50 values were determined by means of a 4-parameter fit using the company's own software.
On the technique in general: Time-resolved FRET reads energy transfer from a long-lived donor to a nearby acceptor.

A further assay deals with MCF7 breast tumour cells. The experiment in a line: MCF7 proliferation assay. Format: cell-based, human. Particulars: for IC50: Homo sapiens, MCF7, 96 h, 4 days incubation, crystal violet staining; for antiproliferative activity, MCF7 (in words): summary of Tab. 2. On the procedure: Cultivated human MCF7 breast tumour cells (ATCC HTB-22) were plated out in a density of 5000 cells/measurement point in 200 μl of growth medium (RPMI1640, 10% foetal calf serum, 2 mU/mL insulin, 0.1 nM oestradiol) in a 96-well multititre plate. After 24 hours, the cells from a plate (zero plate) were stained with crystal violet (see below), while the medium in the other plates was replaced by fresh culture medium (200 μl) to which the test substances had been added in various concentrations (0 μM, and in the range 0.1-30 μM; the final concentration of the solvent dimethyl sulphoxide was 0.5%). The cells were incubated in the presence of the test substances for 4 days. The cell proliferation was determined by staining the cells with crystal violet: the cells were fixed by adding 20 μl/measurement point of an 11% strength glutaraldehyde solution at room temperature for 15 min. After the fixed cells had been washed three times with water, the plates were dried at room temperature. The cells were stained by adding 100 μl/measurement point of a 0.1% strength crystal violet solution (pH adjusted to pH 3 by adding acetic acid). After the stained cells had been washed three times with water, the plates were dried at room temperature. The dye was dissolved by adding 100 μl/measurement point of a 10% strength acetic acid solution, and the extinction was determined by photometry at a wavelength of 595 nm. The percentage change in cell growth was calculated by normalizing the measurements to the extinctions of the zero point plate (=0%) and the extinction of the untreated (0 μM) cells (=100%). The IC50 values were determined by means of a 4-parameter fit using the company's own software.

In a further assay the target is T2, Aurora-C (Homo sapiens, UniProt Q9UQB9).
T2 construct: made in house; host or cells: transiently transfected HEK293 cells
T2 sequence (Q9UQB9 1-309): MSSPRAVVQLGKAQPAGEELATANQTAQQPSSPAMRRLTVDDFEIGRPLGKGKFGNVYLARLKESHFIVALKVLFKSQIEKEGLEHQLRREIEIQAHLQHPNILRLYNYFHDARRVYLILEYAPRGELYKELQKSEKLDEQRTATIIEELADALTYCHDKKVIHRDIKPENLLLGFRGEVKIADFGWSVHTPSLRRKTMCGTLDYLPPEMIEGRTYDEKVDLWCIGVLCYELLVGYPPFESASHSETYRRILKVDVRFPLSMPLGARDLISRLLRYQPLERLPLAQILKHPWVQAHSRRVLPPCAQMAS
Nature of the assay: Aurora-C kinase assay. Particulars: 3 μM ATP, 22° C., 90 min. Format: biochemical. As for the experimental part: Recombinant Aurora-C protein was expressed in transiently transfected HEK293 cells and then purified. The kinase substrate used was the biotinylated peptide having the amino acid sequence biotin-FMRLRRLSTKYRT, which was purchased from Jerini AG in Berlin.
Aurora-C [5 nM in the test mixture, test volume 5 μl] was incubated in the presence of various concentrations of test substances (0 μM and 10 measurement points within the range 0.001-20 μM in duplicate) in assay buffer [25 mM HEPES pH 7.4, 0.5 mM MnCl2, 0.1 mM Na ortho-vanadate, 2.0 mM dithiothreitol, 0.05% bovine serum albumin (BSA), 0.01% Triton X-100, 3 μM adenosine trisphosphate (ATP), 0.67 nCi/μl gamma-^33P-ATP, 2.0 μM substrate peptide biotin-FMRLRRLSTKYRT, 1.0% dimethyl sulphoxide] at 22° C. for 90 min. The reaction was stopped by adding 12.5 μl of an EDTA/detection solution [16 mM EDTA, 40 mM ATP, 0.08% Triton X-100, 4 mg/ml PVT streptavidin SPA beads (from Amersham)]. After incubation for 10 minutes, the SPA beads were pelleted by centrifugation at 1000×G for 10 minutes. Measurement took place in a PerkinElmer Topcount scintillation counter. The measured data were normalized to 0% inhibition (enzyme reaction without inhibitor) and 100% inhibition (enzyme reaction in the presence of 0.1 μM staurosporine (from Sigma)). The IC50 values were determined by means of a 4-parameter fit using the company's own software.

In a further assay the target is T3, CDK2/CycE (Homo sapiens, UniProt P24941).
T3 construct: GST; purchased ProQinase GmbH, Freiburg; host or cells: baculovirus-infected insect cells (Sf9)
The experiment in a line: CDK2/CycE kinase assay. Format: biochemical. Particulars: 0.5 μM ATP, histone IIIS, 22° C., 10 min. On the procedure:
Recombinant CDK2- and CycE-GST fusion proteins, purified from baculovirus-infected insect cells (Sf9), were purchased from ProQinase GmbH, Freiburg. The histone IIIS used as kinase substrate was purchased from Sigma.
(§1) CDK2/CycE (50 ng/measurement point) was incubated in the presence of various concentrations of test substances (0 μM, and within the range 0.01-100 μM) in assay buffer [50 mM Tris/HCl pH 8.0, 10 mM MgCl2, 0.1 mM Na ortho-vanadate, 1.0 mM dithiothreitol, 0.5 μM ATP, 10 μg/measurement point histone IIIS, 0.2 μCi/measurement point ^33P-gamma-ATP, 0.05% NP40, 1.25% dimethyl sulphoxide] at 22° C. for 10 min. The reaction was stopped by adding EDTA solution (250 mM, pH 8.0, 15 μl/measurement point).
15 μl of each reaction mixture were loaded onto P30 filter strips (from Wallac), and non-incorporated ^33P-ATP was removed by washing the filter strips three times in 0.5% strength phosphoric acid for 10 min each time.
After the filter strips had been dried at 70° C. for 1 hour, the filter strips were covered with scintillator strips (MeltiLex™ A, from Wallac) and baked at 90° C. for 1 hour. The amount of incorporated ^33P (substrate phosphorylation) was determined by scintillation measurement in a gamma radiation counter (Wallac).

In the next assay the target is T4, CDK1/CycB (Homo sapiens, UniProt P06493).
T4 construct: GST; purchased ProQinase GmbH, Freiburg; host or cells: baculovirus-infected insect cells (Sf9)
T4 sequence (P06493 whole entry): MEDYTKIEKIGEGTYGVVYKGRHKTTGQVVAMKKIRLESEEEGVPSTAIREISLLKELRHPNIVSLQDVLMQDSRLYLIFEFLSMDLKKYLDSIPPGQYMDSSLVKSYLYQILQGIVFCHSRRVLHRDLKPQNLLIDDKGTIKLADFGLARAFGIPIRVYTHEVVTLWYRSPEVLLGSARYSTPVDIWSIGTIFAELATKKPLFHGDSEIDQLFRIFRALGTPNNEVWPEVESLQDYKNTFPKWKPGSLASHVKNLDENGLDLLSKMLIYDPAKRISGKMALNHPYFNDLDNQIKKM
T4 sequence (P14635 whole entry partner): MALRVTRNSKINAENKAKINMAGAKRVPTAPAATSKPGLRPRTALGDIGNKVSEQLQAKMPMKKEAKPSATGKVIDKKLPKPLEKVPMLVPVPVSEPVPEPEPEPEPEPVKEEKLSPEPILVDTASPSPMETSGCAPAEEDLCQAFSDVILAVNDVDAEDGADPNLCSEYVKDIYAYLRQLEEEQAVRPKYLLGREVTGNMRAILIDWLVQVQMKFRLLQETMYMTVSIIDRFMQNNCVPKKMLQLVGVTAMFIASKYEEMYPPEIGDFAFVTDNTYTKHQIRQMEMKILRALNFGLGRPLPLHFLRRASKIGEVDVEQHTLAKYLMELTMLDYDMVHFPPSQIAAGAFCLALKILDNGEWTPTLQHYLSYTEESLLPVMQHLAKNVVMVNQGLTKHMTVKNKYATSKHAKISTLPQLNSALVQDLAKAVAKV
Nature of the assay: CDK1/CycB kinase assay. Format: biochemical. Particulars: 0.5 μM ATP, histone IIIS, 22° C., 10 min. As for the experimental part:
as §1, with “Recombinant CDK1- and CycB-GST fusion proteins, purified from baculovirus-infected insect cells (Sf9), were purchased from ProQinase GmbH, Freiburg. The histone IIIS used as kinase substrate can be purchased from Sigma. CDK1/CycB (200” for “CDK2/CycE (50”
15 μl of each reaction mixture were loaded onto P30 filter strips (from Wallac), and non-incorporated ^33P-ATP was removed by washing the filter strips three times in 0.5% strength phosphoric acid for 10 min each time. After the filter strips had been dried at 70° C. for 1 hour, the filter strips were covered with scintillator strips (MeltiLex™ A, from Wallac) and baked at 90° C. for 1 hour. The amount of incorporated ^33P (substrate phosphorylation) was determined by scintillation measurement in a gamma radiation counter (Wallac).

T1 sequence (P35968 20-1356, species assumed): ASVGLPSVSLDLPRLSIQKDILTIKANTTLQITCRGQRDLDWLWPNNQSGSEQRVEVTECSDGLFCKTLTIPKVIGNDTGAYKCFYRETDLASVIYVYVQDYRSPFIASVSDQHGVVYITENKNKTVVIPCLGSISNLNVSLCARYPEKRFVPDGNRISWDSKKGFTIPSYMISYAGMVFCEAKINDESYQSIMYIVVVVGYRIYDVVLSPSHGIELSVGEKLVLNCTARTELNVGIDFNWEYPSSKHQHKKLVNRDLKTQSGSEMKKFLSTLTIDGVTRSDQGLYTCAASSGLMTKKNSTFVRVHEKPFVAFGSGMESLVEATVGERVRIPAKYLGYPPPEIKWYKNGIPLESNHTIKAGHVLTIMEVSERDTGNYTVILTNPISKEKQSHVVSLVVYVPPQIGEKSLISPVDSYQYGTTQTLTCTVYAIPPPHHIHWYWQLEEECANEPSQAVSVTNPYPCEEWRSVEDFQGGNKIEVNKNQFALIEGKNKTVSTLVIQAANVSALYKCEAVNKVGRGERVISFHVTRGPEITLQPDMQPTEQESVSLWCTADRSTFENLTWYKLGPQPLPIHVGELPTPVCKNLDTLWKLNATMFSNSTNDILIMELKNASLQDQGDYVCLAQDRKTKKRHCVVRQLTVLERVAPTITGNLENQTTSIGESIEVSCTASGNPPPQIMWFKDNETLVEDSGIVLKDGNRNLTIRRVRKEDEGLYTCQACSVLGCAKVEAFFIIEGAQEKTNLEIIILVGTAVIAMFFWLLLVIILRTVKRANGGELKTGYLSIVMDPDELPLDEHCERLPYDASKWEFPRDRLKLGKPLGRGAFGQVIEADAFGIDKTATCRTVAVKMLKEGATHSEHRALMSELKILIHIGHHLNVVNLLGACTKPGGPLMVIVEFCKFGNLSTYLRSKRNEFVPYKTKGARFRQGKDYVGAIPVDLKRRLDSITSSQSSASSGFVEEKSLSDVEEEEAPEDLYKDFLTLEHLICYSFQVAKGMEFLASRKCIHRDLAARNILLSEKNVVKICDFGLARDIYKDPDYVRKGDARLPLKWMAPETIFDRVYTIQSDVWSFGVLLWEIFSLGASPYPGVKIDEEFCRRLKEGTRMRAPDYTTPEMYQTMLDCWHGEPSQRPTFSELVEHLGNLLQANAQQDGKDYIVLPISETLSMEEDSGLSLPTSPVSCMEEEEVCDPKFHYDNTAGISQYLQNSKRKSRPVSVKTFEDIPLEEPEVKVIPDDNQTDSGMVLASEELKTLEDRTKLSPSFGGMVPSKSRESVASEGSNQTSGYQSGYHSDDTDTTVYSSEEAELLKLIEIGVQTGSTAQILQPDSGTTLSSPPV

For the molecule `C[C@@H](Nc1nc(Nc2ccc(S(C)=NS(=O)(=O)c3ccccc3)cc2)ncc1Br)C(C)(C)O` (mixture of isomers) [Example 15, (RS)—S-{4-[(5-Bromo-4-{[(R)-2-hydroxy-1,2-dimethylpropyl]amino}pyrimidin-2-yl)amino]phenyl}-S-methyl-N-(phenylsulphonyl)sulphimide], the concentration for half-maximal inhibition (IC50) on KDR (VEGFR2) was 37 nM; with MCF7 breast tumour cells it was 110 nM; on Aurora-C it was 570 nM; against CDK2/CycE it was 21 nM; on CDK1/CycB, 110 nM. Also, the “antiproliferative activity, MCF7 (in words)” value in the assay on MCF7 breast tumour cells is recorded as “excellent antiproliferative activity”.

On to `C[C@@H](Nc1nc(Nc2ccc(S(C)=NS(=O)(=O)c3ccc(OC(F)(F)F)cc3)cc2)ncc1Br)C(C)(C)O` (mixture of isomers) [Example 16, (RS)—S-{4-[(5-Bromo-4-{[(R)-2-hydroxy-1,2-dimethylpropyl]-amino}pyrimidin-2-yl)amino]phenyl}-S-methyl-N-{[4-(trifluoromethoxy)phenyl]-sulphonyl}sulphimide], for which the IC50 against KDR (VEGFR2) amounted to 150 nM; in the assay on MCF7 breast tumour cells it was 170 nM; against Aurora-C, 1800 nM; at CDK2/CycE, 72 nM; on CDK1/CycB, 260 nM. The “antiproliferative activity, MCF7 (in words)” value with MCF7 breast tumour cells was “excellent antiproliferative activity”.

Consider `C[C@@H](Nc1nc(Nc2ccc(S(C)=NS(C)(=O)=O)cc2)ncc1Br)C(C)(C)O` (mixture of isomers) [Example 18, (RS)—S-{4-[(5-Bromo-4-{[(R)-2-hydroxy-1,2-dimethylpropyl]amino}pyrimidin-2-yl)amino]phenyl}-N-mesyl-S-methylsulphimide], for which the IC50 came to 35 nM against KDR (VEGFR2); 170 nM in the assay with MCF7 breast tumour cells; 400 nM against Aurora-C; 6 nM against CDK2/CycE; 50 nM on CDK1/CycB.

Regarding `CC(=O)Nc1nnc(S(=O)(=O)N=S(C)c2ccc(Nc3ncc(Br)c(N[C@H](C)C(C)(C)O)n3)cc2)s1` (mixture of isomers) [Example 19, (RS)—N-{[5-(Acetylamino)-1,3,4-thiadiazol-2-yl]sulphonyl}-S-{4-[(5-bromo-4-{[(R)-2-hydroxy-1,2-dimethylpropyl]amino}pyrimidin-2-yl)amino]phenyl}-S-methyl-sulphimide], the IC50 at KDR (VEGFR2) worked out at 320 nM; in the assay with MCF7 breast tumour cells, 1800 nM; against Aurora-C, 1100 nM; against CDK2/CycE it was 25 nM; against CDK1/CycB it was 98 nM.

Regarding `CCS(=O)(=O)N=S(C)c1ccc(Nc2ncc(Br)c(N[C@H](C)C(C)(C)O)n2)cc1` (mixture of isomers) [Example 20, (RS)—S-{4-[(5-Bromo-4-{[(R)-2-hydroxy-1,2-dimethylpropyl]amino}pyrimidin-2-yl)amino]phenyl}-N-(ethylsulphonyl)-S-methylsulphimide], the 50% inhibitory concentration (IC50) against KDR (VEGFR2) stood at 35 nM; in the assay with MCF7 breast tumour cells it was 350 nM; against Aurora-C, 250 nM; at CDK2/CycE it was 10 nM; against CDK1/CycB, 31 nM.

For the molecule `CCCS(=O)(=O)N=S(C)c1ccc(Nc2ncc(Br)c(N[C@H](C)C(C)(C)O)n2)cc1` (mixture of isomers) [Example 21, (RS)—S-{4-[(5-Bromo-4-{[(R)-2-hydroxy-1,2-dimethylpropyl]amino}pyrimidin-2-yl)amino]phenyl}-S-methyl-N-(propylsulphonyl)sulphimide], the IC50 against KDR (VEGFR2) amounted to 49 nM; in the assay on MCF7 breast tumour cells, 310 nM; on Aurora-C, 390 nM; against CDK2/CycE it was 12 nM; at CDK1/CycB it was 36 nM.

For `C[C@@H](Nc1nc(Nc2ccc(S(C)=NS(=O)(=O)C(C)(C)C)cc2)ncc1Br)C(C)(C)O` (mixture of isomers) [Example 22, (RS)—S-{4-[(5-Bromo-4-{[(R)-2-hydroxy-1,2-dimethylpropyl]amino}pyrimidin-2-yl)amino]phenyl}-N-(tert-butylsulphonyl)-S-methylsulphimide], the IC50 against KDR (VEGFR2) was determined as 44 nM; with MCF7 breast tumour cells, 330 nM; on Aurora-C it was 390 nM; against CDK2/CycE, 22 nM; on CDK1/CycB it was 46 nM.
